Measurements from ChEMBL document CHEMBL1221220, “Transport and signaling via the amino acid binding site of the yeast Gap1 amino acid transceptor” (Nat Chem Biol, 2009).
Where a chain is given by its changes, count along the chain named. Activity calls are given as the source filed them. No cut-off for these calls is given here.

Tests used:
[1] = test system: T1, General amino-acid permease GAP1 (Saccharomyces cerevisiae), P19145 [A396C]; experiment: Induction of yeast Gap1 A396C mutant-mediated amino acid uptake at 2 mM in presence of 10 mM MTSEA treated before compound addition
T1 sequence (whole entry): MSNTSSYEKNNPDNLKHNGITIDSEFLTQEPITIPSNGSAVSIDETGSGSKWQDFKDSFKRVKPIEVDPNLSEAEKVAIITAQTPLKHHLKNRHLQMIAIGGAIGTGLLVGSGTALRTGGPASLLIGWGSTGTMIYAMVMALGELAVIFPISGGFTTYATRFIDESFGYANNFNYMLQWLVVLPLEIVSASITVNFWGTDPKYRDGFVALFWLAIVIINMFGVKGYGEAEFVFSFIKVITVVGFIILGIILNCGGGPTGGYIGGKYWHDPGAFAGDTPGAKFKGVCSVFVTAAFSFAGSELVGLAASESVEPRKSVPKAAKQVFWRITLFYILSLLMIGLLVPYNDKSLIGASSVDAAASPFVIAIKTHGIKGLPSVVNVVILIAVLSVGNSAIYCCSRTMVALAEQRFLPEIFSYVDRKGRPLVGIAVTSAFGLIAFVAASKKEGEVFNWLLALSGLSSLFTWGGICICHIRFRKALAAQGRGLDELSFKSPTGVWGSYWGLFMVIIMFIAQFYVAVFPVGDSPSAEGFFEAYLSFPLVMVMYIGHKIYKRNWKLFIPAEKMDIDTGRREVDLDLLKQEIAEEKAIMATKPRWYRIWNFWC

[2] = test system: General amino-acid permease GAP1 (Saccharomyces cerevisiae), P19145 [Y395C]; experiment: Inhibition of yeast Gap1 Y395C mutant-mediated amino acid uptake at 10 mM
Chain of General amino-acid permease GAP1 (Saccharomyces cerevisiae), P19145 [Y395C] (P19145 whole entry Y395C): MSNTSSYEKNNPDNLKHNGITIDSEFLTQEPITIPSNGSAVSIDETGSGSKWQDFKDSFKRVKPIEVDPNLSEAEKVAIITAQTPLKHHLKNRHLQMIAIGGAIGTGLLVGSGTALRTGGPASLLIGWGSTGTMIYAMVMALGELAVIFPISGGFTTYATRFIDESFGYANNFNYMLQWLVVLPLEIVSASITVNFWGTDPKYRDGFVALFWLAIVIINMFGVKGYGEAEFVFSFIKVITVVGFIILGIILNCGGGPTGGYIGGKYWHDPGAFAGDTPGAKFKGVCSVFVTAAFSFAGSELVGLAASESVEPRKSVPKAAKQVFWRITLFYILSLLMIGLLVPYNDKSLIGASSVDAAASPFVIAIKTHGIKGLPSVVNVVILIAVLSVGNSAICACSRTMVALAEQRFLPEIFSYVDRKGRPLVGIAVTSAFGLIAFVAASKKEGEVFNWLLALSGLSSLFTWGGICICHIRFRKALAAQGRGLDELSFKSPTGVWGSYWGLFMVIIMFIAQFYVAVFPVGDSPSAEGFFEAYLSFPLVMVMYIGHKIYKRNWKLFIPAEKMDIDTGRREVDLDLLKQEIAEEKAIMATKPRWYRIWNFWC

[3] = test system: T2, General amino-acid permease GAP1 (Saccharomyces cerevisiae), P19145 [I384C]; experiment: Induction of yeast Gap1 I384C mutant-mediated amino acid uptake at 2 mM in presence of 10 mM MTSEA treated before compound addition
T2 sequence (whole entry): T1 sequence (whole entry) with I384C, C396A

[4] = test system: T3, General amino-acid permease GAP1 (Saccharomyces cerevisiae), P19145 [N391C]; experiment: Induction of yeast Gap1 N391C mutant-mediated amino acid uptake at 2 mM in presence of 10 mM MTSEA treated before compound addition
T3 sequence (whole entry): T1 sequence (whole entry) with N391C, C396A

[5] = test system: T4, General amino-acid permease GAP1 (Saccharomyces cerevisiae), P19145 [T400C]; experiment: Induction of yeast Gap1 T400C mutant-mediated trehalose activation at 2 mM in presence of 10 mM MTSEA treated before compound addition
T4 sequence (whole entry): T1 sequence (whole entry) with C396A, T400C

Saccharomyces cerevisiae = experiment: Induction of yeast Gap1 L404 mutant-mediated trehalose activation at 2 mM in presence of 10 mM MTSEA treated before compound addition

Activity [1]: Active
inhibition [2]: Active
Activity [3]: Active
Activity [4]: Active
inhibition [5]: Active
inhibition (Saccharomyces cerevisiae): Active
SMILES: NC(=O)NCCC[C@H](N)C(=O)O
